Where two headings read alike, the source gives them in different places.
Assays:
[1] = tested on: embryonic chick pelvic cartilage; assay: Stimulation of avian cartilage growth in vitro (organ culture of embryonic chick pelvic cartilage); conditions: for Avian cartilage in vitro, % increase, dry weight: 3-day incubation
[2] = tested on: vitamin D deficient rats; type: in vivo, rat; conditions: for Bone Mass: histomorphometric
Description: Rats were placed on the following protocol. […]
Ten 3 week old rats were maintained on vitamin D3 deficient diet for 6 weeks.
The following parameters in Table III were evaluated, by means which are conventional in the art, after completion the above treatments. Bone mass is measured by known histomorphometric methods.

[3] = tested on: porcine growth-plate cartilage; assay: Stimulation of porcine cartilage growth in vitro (organ culture of fetal pig scapula growth-plates); type: cell-based; conditions: for Porcine cartilage in vitro, % increase, dry weight: 14-17 days incubation
Description: Organ cultures of growth-plates from the scapula cartilages of fetal pigs were performed using methods previously described. (Burch WM, Lebovitz HE (1982) "Triiodothyronine stimulates maturation of porcine growth-plate cartilage in vitro." J. Clin. Investig. (70: 496.) Growth-plates (n=12/treatment group) were isolated aseptically, wet weight obtained, and then placed into individuals wells of 24 well-plastic culture plates. Growth-plates were incubated in 1.5 ml of MEM (Joklik-Modified) containing 0.5% BSA for 14-17 days. The medium was changed and fresh additives introduced every 4-5 days. This medium (MEM) was chosen because it contained antibiotics which allowed relatively long-term culture without contamination. BGJb. (Fitton-Jackson modification) medium with addition of antibiotics has also been used with similar results. At the end of the incubation, growth-plates were weighed for wet weight, then air dried for dry weight. The change in growth-plate wet weights were determined and the cartilages were photographed.

[4] = tested on: Bone Ca resorption (BCR); assay: Bone calcium mobilization in rat (plasma Ca increase); type: in vivo; conditions: 12.5 ng/rat intrajugularly, 18 hours after injection, vitamin D-deficient low calcium diet
Description: Male weanling rats (Holtzman, Madison WI.) were housed individually in overhanging wire cages and were fed a vitamin D-deficient diet containing low calcium (0.005%) and normal phosphorus (0.3%). Test compounds were dissolved in 10-20 μl of ethanol. Plasma (1.8 ml), collected from vitamin D, deficient rats was added to the ethanol solution. The test compounds were given intrajugularly in 0.3 ml of the ethanol-plasma carrier solution. Controls received carrier alone.
Bone Ca resorption (BCR) was estimated by mesuring the blood Ca increase in the treated rats. Blood was collected in heparinized tubes and centrifuged. The resulting plasma was measured for calcium concentration by atomic absorption spectroscopy. Since rats were fed a diet essentially devoid of Ca, plasma Ca increases reflected mobilization of Ca from bone, not intestinal Ca absorption.

[5] = tested on: intestinal ^45 Ca transport (ICA); assay: Stimulation of intestinal calcium absorption in rat (everted gut sac); type: in vivo; conditions: 12.5 ng/rat intrajugularly, 18 hours after injection, vitamin D-deficient low calcium diet
[6] = high dose: daily 60 ng 1,25-(OH)2 D3 or 66 ng Hexa ^2 H, 3 weeks, vitamin D3 deficient diet
[7] = low dose: daily 15 ng 1,25-(OH)2 D3 or 16.5 ng Hexa ^2 H, 3 weeks, vitamin D3 deficient diet

| Compound | Avian cartilage in vitro, % increase, ^35 S ([1]; 10^-9 M) [%] | Avian cartilage in vitro, % increase, dry weight ([1]; 10^-9 M) [%] | Avian cartilage in vitro, % increase, ^3 H proline ([1]; 10^-10 M) [%] | Avian cartilage in vitro, % increase, ^3 H thymidine ([1]; 10^-10 M) [%] | Avian cartilage in vitro, % increase, ^35 S ([1]; 10^-10 M) [%] | Avian cartilage in vitro, % increase, dry weight ([1]; 10^-10 M) [%] | Avian cartilage in vitro, % increase, ^3 H proline ([1]; 10^-11 M) [%] | Avian cartilage in vitro, % increase, ^35 S ([1]; 10^-11 M) [%] | Avian cartilage in vitro, % increase, dry weight ([1]; 10^-11 M) [%] | Avian cartilage in vitro, % increase, ^3 H proline ([1]; 10^-12 M) [%] | Avian cartilage in vitro, % increase, ^3 H thymidine ([1]; 10^-12 M) [%] | Avian cartilage in vitro, % increase, dry weight ([1]; 10^-12 M) [%] | Body Weight [2, 6] [gr] | Porcine cartilage in vitro, % increase, ^3 H ([3]; 10^-10 M) [%] | Porcine cartilage in vitro, % increase, ^35 S ([3]; 10^-10 M) [%] | Porcine cartilage in vitro, % increase, dry weight ([3]; 10^-10 M) [%] | Porcine cartilage in vitro, % increase, ^3 H ([3]; 10^-11 M) [%] | Porcine cartilage in vitro, % increase, ^35 S ([3]; 10^-11 M) [%] | Porcine cartilage in vitro, % increase, dry weight ([3]; 10^-11 M) [%] | % of 1,25-(OH)2 D3 effect in rat, bone calcium mobilization [4] [%] | also measured |
| --- | --- | --- | --- | --- | --- | --- | --- | --- | --- | --- | --- | --- | --- | --- | --- | --- | --- | --- | --- | --- | --- |
| [2H]C([2H])([2H])C(O)(CCC[C@@H](C)[C@H]1CC[C@H]2/C(=C/C=C3/C[C@@H](O)C[C@H](O)C3=C)CCC[C@]12C)C([2H])([2H])[2H] [1,25-(OH)2 D3 -Hexa^2 H, 26,26,26,27,27,27-hexadeutero-1α,25-dihydroxycholecalciferol] | 41.0 | 35.3 | 145.4 | 44.3 | 30.1 | 29.1 | 131.4 | 26.3 | 29.8 | 65.0 | 62.5 | 31.2 | 163 ± 7.2 | 215.7 | 466.0 | 57.6 | 123.6 | 203.2 | 40.9 | 64 | Avian cartilage in vitro, % increase, ^3 H proline ([1]; 10^-9 M): 148.3%; Avian cartilage in vitro, % increase, ^3 H proline ([1]; 10^-13 M): 36.0%; Avian cartilage in vitro, % increase, ^3 H thymidine ([1]; 10^-13 M): 57.9%; Avian cartilage in vitro, % increase, ^35 S ([1]; 10^-13 M): 21.5%; Avian cartilage in vitro, % increase, dry weight ([1]; 10^-13 M): 20.5%; Serum Ca^2+ [2, 6]: 11.20 ± 0.28 mg/dL; Serum Creatinine [2, 6]: 0.36 ± 0.04 mg/dL; Bone Mass [2, 6]: 371 ± 68 ^mm.spsp.3 /cm^3; Body Weight [2, 7]: 193 ± 5 gr; Serum Ca^2+ [2, 7]: 11.28 ± 0.26 mg/dL; Serum Creatinine [2, 7]: 0.36 ± 0.02 mg/dL; Bone Mass [2, 7]: 288 ± 58 ^mm.spsp.3 /cm^3; activity in increasing bone mass compared with 1,25-(OH)2 D3 ([2]; summary of Table III): more active than 1,25-(OH)2 D3; activity in inducing hypercalcemia compared with 1,25-(OH)2 D3 (serum Ca^2+) ([2]; summary of Table III): not as active as 1,25-(OH)2 D3; Porcine cartilage in vitro, % increase, dry weight ([3]; 10^-12 M): 31.5%; Porcine cartilage in vitro, % increase, dry weight ([3]; 10^-13 M): 29.5%; % of 1,25-(OH)2 D3 effect in rat, intestinal calcium absorption [5]: 92% |
| [2H]C([2H])([2H])C(O)(C([2H])([2H])[2H])C([2H])([2H])CC[C@@H](C)[C@H]1CC[C@H]2/C(=C/C=C3/C[C@@H](O)C[C@H](O)C3=C)CCC[C@]12C [1,25-(OH)2 D3 -Octa^2 H, 24,24,26,26,26,27,27,27-octadeutero-1α,25-dihydroxycholecalciferol] | 10.8 | 28.0 |  | 25.0 |  | 21.6 |  |  | 17.0 |  | 15.3 | 10.3 |  | 75 | 410 | 50 | 20 | 95 | 42 | 147 | Avian cartilage in vitro, % increase, ^3 H thymidine ([1]; 10^-11 M): 20.7%; Porcine cartilage in vitro, % increase, ^3 H ([3]; 10^-9 M): 150%; Porcine cartilage in vitro, % increase, ^35 S ([3]; 10^-9 M): 490%; Porcine cartilage in vitro, % increase, dry weight ([3]; 10^-9 M): 60% |
| C=C1/C(=C\C=C2/CCC[C@]3(C)[C@@H]([C@H](C)CCCC(C)(C)O)CC[C@@H]23)C[C@@H](O)C[C@@H]1O [1,25-(OH)2 D3, 1α,25-dihydroxycholecalciferol, reference compound] |  | 31.8 | 122 |  | 21.8 | 27.2 | 68.3 | 13.8 | 24.1 | 46.3 |  | 22.6 | 156 ± 15 | 0 | 0 | 0 | 0 | 0 | 0 | 100 | Avian cartilage in vitro, % increase, ^35 S ([1]; 10^-12 M): 8.6%; Serum Creatinine [2, 6]: 0.35 ± 0.02 mg/dL; Bone Mass [2, 6]: 296 ± 56 ^mm.spsp.3 /cm^3; Body Weight [2, 7]: 192 ± 4.5 gr; Serum Ca^2+ [2, 7]: 11.87 ± 0.16 mg/dL; Serum Creatinine [2, 7]: 0.37 ± 0.04 mg/dL; Bone Mass [2, 7]: 156 ± 16 ^mm.spsp.3 /cm^3; Serum Ca^2+ ([2]; rat, in vivo): 11.92 ± 0.40 mg/dL; Porcine cartilage in vitro, % increase, ^3 H ([3]; 10^-9 M): 300%; Porcine cartilage in vitro, % increase, ^35 S ([3]; 10^-9 M): 280%; Porcine cartilage in vitro, % increase, dry weight ([3]; 10^-9 M): 49%; % of 1,25-(OH)2 D3 effect in rat, intestinal calcium absorption [5]: 100% |

Source: patent US4898855A, “Deuterated analogs of 1,25-dihydroxycholecalciferol” (Hoffman-La Roche Inc., priority 1987, dated 1990)
